From patent US11377423B2, “Inhibitors of histone deacetylase” (The Broad Institute, Inc., priority 2012, dated 2022) come the findings set out here.

Data set [1] has as its target T1, HDAC1 (Homo sapiens (Human), UniProt Q13547). The experiment in a line: Caliper HDAC enzymatic endpoint assay, HDAC1. The class given is biochemical.
Experimental: (§1) Substrate A was prepared as 2 mM in DMSO. Its final concentration in the assay for HDACs 1, 2, 3, 6 is 2 μM.
(§2) Below is the HDAC and Substrate concentration used in this assay.
Data set [2] has as its system human megakaryocyte progenitors. Kind of data set: Growth of human megakaryocyte progenitors (surrogate assay for platelet depletion). The class given is cell-based. The settings on record: 0.1, 1, 10 and 20 μM, relative to DMSO treated cells. The protocol:
Compounds of the invention were evaluated for their effect on the growth of human megakaryocyte progenitors (surrogate assay for platelet depletion). Human CD34+ cells were grown in a collagen-based gel (Megacult-C, Stemcell Technologies). […] 100% indicates no difference in cell viability relative to the DMSO treated cells. […] This is the desired effect.

Data set [3] has as its system INS-1E cells. The experiment in a line: ROS formation (CM-H2DCFDA probe). The class given is cell-based, rat. The settings on record: 10 μM, GLT, 48 hrs. The protocol:
INS-1E cells (50,000 cells/well) were seeded in 96-well plates in 100 uL complete medium. Two days after incubation, medium was removed and cells exposed to 100 uL medium/well with the indicated concentrations of palmitate, glucose, test compounds and/or vehicle. After 24 hours, cells were aspirated and incubated for 45 min in phenol […] RPMI (Invitrogen) containing 10 μM CM-H2DCFDA probe (Molecular Probes). Wells were subsequently washed twice with phenol red-free RMPI, incubated for 3 min with Hoechst 33342 (10 ug/mL) in phenol red-free media, followed by a final washing step. Fluorescence was captured by an IX Micro automated fluorescence microscope (Molecular Devices) and quantification of ROS per cell was analyzed using MetaXpress software (Molecular Devices). Each condition was assayed in five biological replicates. Glucolipotoxicity causes oxidative stress in β cells via increased ROS formation from mitochondria. […] ROS formation per cell (48 hrs) was measured using the CM-H2DCFDA probe and Hoechst staining. Data are presented as fold to CTRL+SEM n=3-4, ns=not significant, **p<0.01, ***p<0.001 vs unexposed cells; #p<0.05, ##p<0.01, vs. GLT treated cells, ANOVA with Tukey corrected test.

The target of the next data set is HDAC2 (Homo sapiens (Human), UniProt Q92769). The experiment in a line: Tm shift. It counts as binding.
HDAC2, sequence (Q92769 whole entry): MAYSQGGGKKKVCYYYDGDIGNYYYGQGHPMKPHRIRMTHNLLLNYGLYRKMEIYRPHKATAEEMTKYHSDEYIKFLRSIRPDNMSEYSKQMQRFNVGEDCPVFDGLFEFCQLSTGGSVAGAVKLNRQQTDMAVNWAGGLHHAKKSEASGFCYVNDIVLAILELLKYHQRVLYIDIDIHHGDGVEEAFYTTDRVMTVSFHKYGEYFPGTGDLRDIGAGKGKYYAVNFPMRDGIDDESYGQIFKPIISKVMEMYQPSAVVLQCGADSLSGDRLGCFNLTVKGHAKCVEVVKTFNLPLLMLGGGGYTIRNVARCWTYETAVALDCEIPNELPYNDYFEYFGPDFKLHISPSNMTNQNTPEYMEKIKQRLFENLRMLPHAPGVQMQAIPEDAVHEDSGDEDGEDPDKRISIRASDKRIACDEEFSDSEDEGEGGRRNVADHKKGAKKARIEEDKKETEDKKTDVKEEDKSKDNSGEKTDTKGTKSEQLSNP
Data set [4] deals with T1, HDAC1. The experiment in a line: Binding constant from HDAC1 inactivation kinetics.
Experimental: HDAC1 inactivation kinetic constant was determined by curve-fitting of the plot to a first-order rate equation.
Data set [5] deals with INS-1E cells. The experiment in a line: Insulin gene Ins1 and Ins2 expression by qPCR. It counts as cell-based, rat. As to conditions: 10 μM, glucolipotoxicity, 24 h. The procedure: INS-1E cells (one million/well) were seeded in 6-well plates in 2 mL complete medium. After two days, medium was removed and cells were exposed to 2 mL medium/well with the indicated concentrations of palmitate, glucose, HDAC inhibitors and/or vehicle. RNA was purified (Qiagen) and cDNA synthesis performed done according to manufacturers' guidelines (Applied Biosystems) and real-time PCR performed using the SYBR green method (Applied Biosystems). Each cDNA sample in triplicate was subjected to two individual PCR amplifications either for the gene of interest or the reference gene β-actin. See table below for primer sequences. Compounds of the invention counteract glucolipotoxic reductions in insulin gene […] and […] expression. […] The gene expression in FIGS. 13A and 13B were analyzed by qPCR. […] Glucose-stimulated insulin secretion and total insulin content were assessed by ELISA. Data are presented as fold to CTRL+SEM, n=3-5, ns=not significant, *p<0.05, **p<0.01, ***p<0.001 vs. CTRL, #p<0.05, ##p<0.01, ###p<0.001 vs. respective treatment. ANOVA with Tukey- or Dunnet-corrected test, or Student's t-test (insulin content).

In another data set the target is HDAC6 (Homo sapiens (Human), UniProt Q9UBN7). The experiment in a line: Caliper HDAC enzymatic endpoint assay, HDAC6. It counts as biochemical. The settings on record: Table 2C; read-out: HDAC6 IC50 after 0 hr preincubation.
HDAC6, sequence (Q9UBN7 whole entry): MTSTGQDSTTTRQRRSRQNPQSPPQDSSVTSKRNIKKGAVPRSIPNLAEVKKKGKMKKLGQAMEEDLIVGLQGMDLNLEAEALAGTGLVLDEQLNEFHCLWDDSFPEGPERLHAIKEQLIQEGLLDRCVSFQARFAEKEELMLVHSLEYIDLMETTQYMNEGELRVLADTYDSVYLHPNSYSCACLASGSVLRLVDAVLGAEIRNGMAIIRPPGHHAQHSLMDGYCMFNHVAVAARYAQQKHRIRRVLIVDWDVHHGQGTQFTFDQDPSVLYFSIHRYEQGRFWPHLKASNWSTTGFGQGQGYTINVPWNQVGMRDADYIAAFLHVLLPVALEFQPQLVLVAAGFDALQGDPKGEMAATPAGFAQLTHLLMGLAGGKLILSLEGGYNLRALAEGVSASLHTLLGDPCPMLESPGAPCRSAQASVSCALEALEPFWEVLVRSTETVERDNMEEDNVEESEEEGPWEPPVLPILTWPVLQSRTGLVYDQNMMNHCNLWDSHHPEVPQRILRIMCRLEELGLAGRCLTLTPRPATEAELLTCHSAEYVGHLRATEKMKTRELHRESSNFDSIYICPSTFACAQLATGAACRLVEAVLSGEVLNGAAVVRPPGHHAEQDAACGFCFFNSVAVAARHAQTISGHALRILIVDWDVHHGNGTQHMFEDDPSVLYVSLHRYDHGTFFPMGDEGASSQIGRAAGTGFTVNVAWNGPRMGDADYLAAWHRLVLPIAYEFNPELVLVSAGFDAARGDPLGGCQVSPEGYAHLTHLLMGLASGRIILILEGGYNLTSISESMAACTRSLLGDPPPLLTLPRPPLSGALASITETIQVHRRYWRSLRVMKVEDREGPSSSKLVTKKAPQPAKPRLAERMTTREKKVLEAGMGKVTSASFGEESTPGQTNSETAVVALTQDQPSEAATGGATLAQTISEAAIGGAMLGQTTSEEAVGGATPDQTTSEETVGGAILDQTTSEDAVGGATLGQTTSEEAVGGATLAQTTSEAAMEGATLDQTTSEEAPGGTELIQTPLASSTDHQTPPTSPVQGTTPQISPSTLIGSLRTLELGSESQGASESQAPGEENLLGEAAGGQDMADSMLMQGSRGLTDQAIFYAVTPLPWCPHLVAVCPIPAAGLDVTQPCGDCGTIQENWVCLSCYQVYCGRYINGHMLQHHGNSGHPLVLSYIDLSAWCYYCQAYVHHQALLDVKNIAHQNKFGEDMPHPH
The subject of data set [6] is INS-1E cells. The experiment in a line: ER stress / UPR markers by qPCR and immunoblotting. It counts as cell-based, rat. The settings on record: 10 μM, GLT. The protocol: INS-1E cells (one million/well) were seeded in 6-well plates in 2 mL complete medium. After two days, medium was removed and cells were exposed to 2 mL medium/well with the indicated concentrations of palmitate, glucose, HDAC inhibitors and/or vehicle. RNA was purified (Qiagen) and cDNA synthesis performed done according to manufacturers' guidelines (Applied Biosystems) and real-time PCR performed using the SYBR green method (Applied Biosystems). Each cDNA sample in triplicate was subjected to two individual PCR amplifications either for the gene of interest or the reference gene β-actin. See table below for primer sequences. INS-1E cells (one million/well) were seeded in 6-well plates in 2 mL complete medium. After two days, medium was removed and cells were exposed to 2 mL medium/well with the indicated concentrations of palmitate, glucose, test compounds and/or vehicle. Cells were lysed using Passive Lysis Buffer (Promega) containing protease inhibitors (Roche). Lysates were adjusted for protein concentration (Bradford) and protein separated by SDS-PAGE and transferred to PVDF membranes. Blots were developed using a chemiluminescence detection system (SuperSignal, Thermo Fisher Scientific), and light emission was captured using an Imaging Station 4000MM (Carestream). […] Gene expressions (vehicle=open bars, compound 1=light grey bars, GLT=black bars, GLT and compound 1=dark grey bars) were analyzed by qPCR (FIGS. 14A, 14B, 14D, 14E, and 14F) and protein levels (FIGS. 14C and 14G) (24 h) by immunoblotting. Representative blots are shown. Data are presented as fold to CTRL+SEM n=3-4, ns=not significant, *p<0.05, **p<0.01, ***p<0.001 vs unexposed cells; #p<0.05, ##p<0.01, ###p<0.001 vs. GLT treated cells, ANOVA with Tukey corrected test.

“Also recorded” adds a separate entry of the source. Read-outs that look alike come from different tables or passages of the source.

T1 sequence (Q13547 whole entry): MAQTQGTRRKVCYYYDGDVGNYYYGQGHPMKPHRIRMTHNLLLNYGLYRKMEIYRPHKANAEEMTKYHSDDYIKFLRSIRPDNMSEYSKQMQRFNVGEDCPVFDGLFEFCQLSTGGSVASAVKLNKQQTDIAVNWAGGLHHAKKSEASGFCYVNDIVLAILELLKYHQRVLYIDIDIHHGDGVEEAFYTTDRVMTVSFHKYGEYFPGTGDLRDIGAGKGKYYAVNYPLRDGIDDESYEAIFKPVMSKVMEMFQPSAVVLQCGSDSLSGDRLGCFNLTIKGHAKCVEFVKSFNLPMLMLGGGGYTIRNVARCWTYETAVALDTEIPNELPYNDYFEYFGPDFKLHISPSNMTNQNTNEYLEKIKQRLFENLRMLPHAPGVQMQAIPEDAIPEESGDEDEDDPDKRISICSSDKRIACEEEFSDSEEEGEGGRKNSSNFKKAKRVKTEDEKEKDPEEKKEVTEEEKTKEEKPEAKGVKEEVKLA
Experimental for HDAC6: as §1, §2

For `CC(=O)Nc1ccc(C(=O)Nc2ccc(F)cc2N)cc1` [Compound 1, 4-acetamido-N-(2-amino-4-fluorophenyl)benzamide], the IC50 at HDAC1 [1] (read-out: HDAC1 IC50 3 h Prein, Table 2, 3 h preincubation) came to 1250 nM. At HDAC1 [1] (read-out: HDAC1 IC50 3 h Preinc, Table 2A, 3 h preincubation), the half-maximal inhibitory concentration (IC50) came out at 1250 nM. Moreover, the IC50 at HDAC1 [1] (read-out: HDAC1 IC50 @3 hr, 3 hr preincubation) is 1250 nM. For the same molecule, in data set [2], the “effect on growth and viability of human megakaryocyte progenitor cells” value is “does not significantly inhibit cell growth; also recorded: no significant effect on growth and viability”. In addition, in the data set on INS-1E cells [3], the “glucolipotoxicity-induced ROS formation” value is “reduces glucolipotoxicity-induced ROS formation”. In addition, the Tm shift at HDAC2 was found to be 2.7 °C. For the same molecule, on HDAC1 [4] (HDAC1, values marked *, read-out: Ki (binding constant derived from HDAC1 inactivation kinetics)), the KI (inactivation) was 5100 nM. Besides, the dissociation constant Kd on HDAC1 [4] (from Kinactivation vs concentration, read-out: Kd of HDAC1-Compound 1 complex) is 5100 nM. Moreover, in the data set on INS-1E cells [5], the “insulin gene Ins1 expression” value is given as “partially restoring insulin gene Ins1 expression” and the “insulin gene Ins2 expression” value is listed as “partially restoring insulin gene Ins2 expression”. Further, the IC50 on HDAC6 is over 33000 nM. Besides, in the data set with INS-1E cells [6], the “Atf4 transcription factor induction” value is recorded as “did not affect Atf4 transcription factor induction”, the “levels of the ER chaperone Bip mRNA” value is reported as “did not change” and the “splicing of Xbp1 to Xbp1s” value is on record as “did not affect splicing”. Further, in the data set on INS-1E cells [6] (9 hrs), the “ATF4-mediated induction of Chop” value is “decreased”. Moreover, in the data set with INS-1E cells [6] (24 hrs), the “ATF4-mediated induction of Atf3” value is listed as “decreased”; the “CHOP mRNA and protein induction” value is on record as “completely reversed”; the “phosphorylation of JNK (pJNK/tJNK)” value is listed as “inhibited phosphorylation of JNK”.
